PubChem BioAssay AID248 (DTP/NCI, 2004)
Several values for one entry are separate records, joined by “and”; a condition that tells them apart may be missing. Equal entries are not always repeated. Toxic doses and inconclusive results are not listed.

System: L1210 leukemia ip in BDF1 mice, survival T/C
Assay: NCI In Vivo Anticancer Drug Screen. Data for tumor model L1210 Leukemia (intraperitoneal) in B6D2F1 (BDF1) mice
Settings: endpoint: mean survival time, higher = longer survival
How it was run: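 Mice bearing the transplanted tumor received compound or vehicle. Survival of the treated group was divided by that of the vehicle-treated control group to give the ratio.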

NC(=S)N/N=C/c1ccccn1
T/C (dose: 0.48 mg/kg/injection, schedule: Q01DX009 (ip), vehicle: saline with Tween-80): 97 % of control and 115 % of control
T/C (dose: 0.9 mg/kg/injection, schedule: Q04DX002 (ip), vehicle: saline with Tween-80): 100 % of control and 107 % of control
T/C (dose: 0.95 mg/kg/injection, schedule: Q01DX009 (ip), vehicle: saline with Tween-80): 106 % of control and 115 % of control
T/C (dose: 1.0 mg/kg/injection, schedule: Q03HX032 (ip), vehicle: other): 117 % of control
T/C (dose: 1.3 mg/kg/injection, schedule: Q01DX Z (ip), vehicle: carboxymethylcellulose (CMC)): 118 % of control
T/C (dose: 1.8 mg/kg/injection, schedule: Q03HX024 (ip), vehicle: carboxymethylcellulose (CMC)): 92 % of control
T/C (dose: 1.8 mg/kg/injection, schedule: Q03HX024 (ip), vehicle: other): 111 % of control
T/C (dose: 1.8 mg/kg/injection, schedule: Q04DX002 (ip), vehicle: saline with Tween-80): 106 % of control and 110 % of control
T/C (dose: 1.9 mg/kg/injection, schedule: Q01DX009 (ip), vehicle: saline with Tween-80): 113 % of control and 121 % of control
T/C (dose: 2.6 mg/kg/injection, schedule: Q03HX032 (ip), vehicle: other): 213 % of control
T/C (dose: 3.0 mg/kg/injection, schedule: Q01DX015 (ip), vehicle: saline): 105 % of control
T/C (dose: 3.0 mg/kg/injection, schedule: Q03HX032 (ip), vehicle: other): 168 % of control
T/C (dose: 3.5 mg/kg/injection, schedule: Q03HX008 (ip), vehicle: other): 164 % of control
T/C (dose: 3.5 mg/kg/injection, schedule: Q03HX016 (ip), vehicle: other): 192 % of control
T/C (dose: 3.5 mg/kg/injection, schedule: Q03HX024 (ip), vehicle: other): 368 % of control
T/C (dose: 3.5 mg/kg/injection, schedule: Q04DX002 (ip), vehicle: saline with Tween-80): 104 % of control and 91 % of control
T/C (dose: 3.8 mg/kg/injection, schedule: Q01DX009 (ip), vehicle: saline with Tween-80): 121 % of control
T/C (dose: 4.0 mg/kg/injection, schedule: Q03HX024 (ip), vehicle: carboxymethylcellulose (CMC)): 197 % of control
T/C (dose: 4.0 mg/kg/injection, schedule: Q03HX024 (ip), vehicle: other): 337 % of control
T/C (dose: 4.0 mg/kg/injection, schedule: Q03HX024 (ip), vehicle: saline with Tween-80): 345 % of control
T/C (dose: 4.4 mg/kg/injection, schedule: Q01DX009 (ip), vehicle: saline): 114 % of control
T/C (dose: 4.4 mg/kg/injection, schedule: Q02DX010 (ip), vehicle: carboxymethylcellulose (CMC)): 114 % of control
T/C (dose: 5.0 mg/kg/injection, schedule: Q01DX015 (ip), vehicle: saline): 103 % of control
T/C (dose: 5.0 mg/kg/injection, schedule: Q03HX008 (ip), vehicle: other): 175 % of control
T/C (dose: 5.0 mg/kg/injection, schedule: Q03HX016 (ip), vehicle: other): 261 % of control
T/C (dose: 5.0 mg/kg/injection, schedule: Q03HX024 (ip), vehicle: other): 526 % of control
T/C (dose: 5.0 mg/kg/injection, schedule: Q03HX032 (ip), vehicle: other): 420 % of control
T/C (dose: 5.0 mg/kg/injection, schedule: Q04DX003 (ip), vehicle: other): 105 % of control
T/C (dose: 5.0 mg/kg/injection, schedule: Q04DX003 (ip), vehicle: saline with Tween-80): 116 % of control
T/C (dose: 5.0 mg/kg/injection, schedule: Q08DX002 (ip), vehicle: other): 102 % of control
T/C (dose: 6.0 mg/kg/injection, schedule: Q03HX024 (ip), vehicle: saline with Tween-80): 376 % of control
T/C (dose: 6.6 mg/kg/injection, schedule: Q02DX010 (ip), vehicle: carboxymethylcellulose (CMC)): 121 % of control
T/C (dose: 6.7 mg/kg/injection, schedule: Q01DX015 (ip), vehicle: other): 169 % of control
T/C (dose: 6.7 mg/kg/injection, schedule: Q02DX010 (ip), vehicle: carboxymethylcellulose (CMC)): 114 % of control
T/C (dose: 7.0 mg/kg/injection, schedule: Q01DX015 (ip), vehicle: saline): 152 % of control
T/C (dose: 7.0 mg/kg/injection, schedule: Q04DX002 (ip), vehicle: saline with Tween-80): 107 % of control and 116 % of control
T/C (dose: 7.5 mg/kg/injection, schedule: Q03HX032 (ip), vehicle: other): 150 % of control
T/C (dose: 8.0 mg/kg/injection, schedule: Q04DX003 (ip), vehicle: other): 101 % of control
T/C (dose: 8.0 mg/kg/injection, schedule: Q08DX002 (ip), vehicle: other): 104 % of control
T/C (dose: 10.0 mg/kg/injection, schedule: Q01DX009 (ip), vehicle: other): 155 % of control
T/C (dose: 10.0 mg/kg/injection, schedule: Q01DX009 (ip), vehicle: saline): 114 % of control
T/C (dose: 10.0 mg/kg/injection, schedule: Q01DX015 (ip), vehicle: other): 164 % of control
T/C (dose: 10.0 mg/kg/injection, schedule: Q02DX010 (ip), vehicle: carboxymethylcellulose (CMC)): 120 % of control
T/C (dose: 10.0 mg/kg/injection, schedule: Q04DX003 (ip), vehicle: saline with Tween-80): 114 % of control
T/C (dose: 10.7 mg/kg/injection, schedule: Q01DX Z (ip), vehicle: carboxymethylcellulose (CMC)): 116 % of control
T/C (dose: 11.0 mg/kg/injection, schedule: Q01DX015 (ip), vehicle: saline): 116 % of control
T/C (dose: 12.0 mg/kg/injection, schedule: Q04DX003 (ip), vehicle: other): 107 % of control
T/C (dose: 12.0 mg/kg/injection, schedule: Q08DX002 (ip), vehicle: other): 100 % of control
T/C (dose: 14.0 mg/kg/injection, schedule: Q04DX002 (ip), vehicle: saline with Tween-80): 110 % of control and 112 % of control
T/C (dose: 14.5 mg/kg/injection, schedule: Q01DX001 (ip), vehicle: other): 105 % of control
T/C (dose: 15.0 mg/kg/injection, schedule: Q01DX009 (ip), vehicle: other): 159 % of control
T/C (dose: 15.0 mg/kg/injection, schedule: Q02DX010 (ip), vehicle: carboxymethylcellulose (CMC)): 120 % of control and 121 % of control (2×)
T/C (dose: 17.0 mg/kg/injection, schedule: Q01DX015 (ip), vehicle: saline): 104 % of control
T/C (dose: 18.0 mg/kg/injection, schedule: Q04DX003 (ip), vehicle: other): 112 % of control
T/C (dose: 18.0 mg/kg/injection, schedule: Q08DX002 (ip), vehicle: other): 97 % of control
T/C (dose: 20.0 mg/kg/injection, schedule: Q04DX003 (ip), vehicle: saline with Tween-80): 109 % of control
T/C (dose: 22.0 mg/kg/injection, schedule: Q01DX001 (ip), vehicle: other): 101 % of control and 114 % of control
T/C (dose: 22.5 mg/kg/injection, schedule: Q02DX010 (ip), vehicle: carboxymethylcellulose (CMC)): 109 % of control and 90 % of control
T/C (dose: 25.0 mg/kg/injection, schedule: Q01DX015 (ip), vehicle: saline): 90 % of control
T/C (dose: 27.0 mg/kg/injection, schedule: Q04DX003 (ip), vehicle: other): 104 % of control
T/C (dose: 27.0 mg/kg/injection, schedule: Q08DX002 (ip), vehicle: other): 95 % of control
T/C (dose: 28.0 mg/kg/injection, schedule: Q04DX002 (ip), vehicle: saline with Tween-80): 104 % of control and 107 % of control
T/C (dose: 30.0 mg/kg/injection, schedule: Q01DX009 (ip), vehicle: saline with Tween-80): 90 % of control
T/C (dose: 33.0 mg/kg/injection, schedule: Q01DX001 (ip), vehicle: other): 105 % of control and 112 % of control
T/C (dose: 34.0 mg/kg/injection, schedule: Q02DX010 (ip), vehicle: carboxymethylcellulose (CMC)): 73 % of control and 89 % of control
T/C (dose: 50.0 mg/kg/injection, schedule: Q01DX001 (ip), vehicle: other): 104 % of control

O=C(c1ccccc1)c1cc(O)c(O)c(O)c1
T/C (dose: 100.0 mg/kg/injection, schedule: Q01DX009 (ip), vehicle: other): 99 % of control
T/C (dose: 100.0 mg/kg/injection, schedule: Q04DX003 (ip), vehicle: saline): 100 % of control
T/C (dose: 200.0 mg/kg/injection, schedule: Q01DX009 (ip), vehicle: other): 90 % of control
T/C (dose: 200.0 mg/kg/injection, schedule: Q04DX003 (ip), vehicle: saline): 94 % of control
T/C (dose: 400.0 mg/kg/injection, schedule: Q01DX009 (ip), vehicle: other): 99 % of control
T/C (dose: 400.0 mg/kg/injection, schedule: Q04DX003 (ip), vehicle: saline): 100 % of control

CC(C)CCCC(C)C1CCC2C3CC=C4CC(OC(=O)Nc5ccc(S(=O)(=O)NC6CCCCC6)cc5)CCC4(C)C3CCC12C (stereo unspecified)
T/C (dose: 100.0 mg/kg/injection, schedule: Q01DX001 (sc), vehicle: steriod suspending solution): 110 % of control
T/C (dose: 200.0 mg/kg/injection, schedule: Q01DX001 (sc), vehicle: steriod suspending solution): 108 % of control
T/C (dose: 400.0 mg/kg/injection, schedule: Q01DX001 (sc), vehicle: steriod suspending solution): 105 % of control

O=P1(CCc2ccc(Cl)cc2)CC(Br)C(Br)C1 (stereo unspecified)
T/C (dose: 100.0 mg/kg/injection, schedule: Q04DX003 (ip), vehicle: other): 93 % of control
T/C (dose: 200.0 mg/kg/injection, schedule: Q04DX003 (ip), vehicle: other): 95 % of control
T/C (dose: 400.0 mg/kg/injection, schedule: Q04DX003 (ip), vehicle: other): 98 % of control

COc1ccc(NC(=O)N2CCN(c3ccccc3)CC2)c(OC)c1
T/C (dose: 100.0 mg/kg/injection, schedule: Q01DX009 (ip), vehicle: Klucel (hydroxypropylcellulose) (HPC)): 102 % of control
T/C (dose: 200.0 mg/kg/injection, schedule: Q01DX009 (ip), vehicle: Klucel (hydroxypropylcellulose) (HPC)): 96 % of control
T/C (dose: 400.0 mg/kg/injection, schedule: Q01DX009 (ip), vehicle: Klucel (hydroxypropylcellulose) (HPC)): 96 % of control
